Test results as given in patent US6034246A, “2-arylbenzazole compounds” (Cancer Research Campaign Technology Limited, priority 1995, dated 2000).

Experiments:
L88 = experiment: in vitro inhibition of growth of human lung cancer cell line L88 (Table 1); type: cell-based
Source text: (§1) Tables 1 to 4 at the end of the present description show in vitro test results obtained in various sets of experiments for the cytotoxic activity of several of the benzazole compounds concerned, including also for reference results for the compound CJM 126 and comparative results for compound DF129, when tested against a range of tumor cell lines which includes ovarian, lung and certain colon and renal cancer cells from the National Cancer Institute (USA) collection. As usual the results are expressed in terms of IS50 values (concentration or dosage required to reduce cell growth or proliferation by 50%) calculated from dose-effect curves plotted for cultures of the cells in question.
(§2) In carrying out the in vitro studies, the cytotoxicity assays may be carried out by a method corresponding substantially to the following example:
(§3) Cells were maintained in a continuous logarithmic culture in Dublecco's medium supplemented with 10% fetal calf serum and penicillin (100 IU/ml) and streptomycin ([…]). The cells were mildly trypsinized for passage and for use in assays. On day zero, 100 μl of trypsinized tumor cells (1×10^4 /ml) were plated in the wells of 96-well flat-bottom microtiter plates. The plates were incubated for 2 days at 37° C. and 5% CO2 in air to allow the cells to adhere and resume exponential growth prior to the addition of drugs.
On day two 50 μl of the highest drug concentration was added to the wells of column 12 and from there serially diluted 3-fold to column 1 by serial transfer of 50 μl using an 8-channel micropipette. The final volume of column 1 was adjusted to 100 μl. No additions were made to the wells of rows A and B, which served as controls. […]
(§4) On day 7 the test was terminated by the addition of 100 μl saline containing 0.002% w/v propidium iodide (Sigma), 0.3% drawing ink (Staedtler "Marsmatic 745"--Trade Mark) and 0.5% Triton X-100. The plates were kept at 4° C. overnight before reading on an inverted microscope equipped with an automated scanning stage. Fluorescence intensity was measured in arbitrary units by a photomultiplier. […]

Colon HCC-2998 = experiment: in vitro inhibitory activity against human colon cell line HCC-2998 (Table 3); type: cell-based
Source text: as §1
(§5) In carrying out the in vitro studies, the cytotoxicity assays may be carried out by a method corresponding substantially to the following example: […]
as §4

MOR/CPR = experiment: in vitro inhibition of growth of human lung cancer cell line MOR/CPR (Table 1); type: cell-based; details: for IC50: Homo sapiens, MOR/CPR (cisplatin resistant line); for activity against MOR/CPR relative to MOR/P and MOR/R: words, Table 1
Source text: as §1, §2, §3
(§6) On day two 50 μl of the highest drug concentration was added to the wells of column 12 and from there serially diluted 3-fold to column 1 by serial transfer of 50 μl using an 8-channel micropipette. The final volume of column 1 was adjusted to 100 μl. No additions were made to the wells of rows A and B, which served as controls. The plates were further incubated for 5 days at 37° C. and 5% CO2 in air. Each compound was tested in duplicate.
(§7) On day 7 the test was terminated by the addition of 100 μl saline containing 0.002% w/v propidium iodide (Sigma), 0.3% drawing ink (Staedtler "Marsmatic 745"--Trade Mark) and 0.5% Triton X-100. The plates were kept at 4° C. overnight before reading on an inverted microscope equipped with an automated scanning stage. Fluorescence intensity was measured in arbitrary units by a photomultiplier. An HP-87 computer controlled the movement of the stage and also collected and processed the data from the multiplier.
(§8) For each compound tested a dose-response curve was obtained and the IC50 value (the drug concentration at 50% inhibition of cell growth) was calculated.

A2780 = experiment: in vitro activity against human ovarian cell line A2780 (Table 2); type: cell-based; details: Homo sapiens; A2780 (parental line)
Source text: (§9) As usual the results are expressed in terms of IS50 values (concentration or dosage required to reduce cell growth or proliferation by 50%) calculated from dose-effect curves plotted for cultures of the cells in question.
as §2, §3, §6
(§10) The plates were kept at 4° C. overnight before reading on an inverted microscope equipped with an automated scanning stage. Fluorescence intensity was measured in arbitrary units by a photomultiplier. An HP-87 computer controlled the movement of the stage and also collected and processed the data from the multiplier.

H69/P = experiment: in vitro inhibition of growth of human lung cancer cell line H69/P (Table 1); type: cell-based
Source text: as §1, §2, §3, §6, §7, §8

IGR-OV1 = experiment: in vitro activity against human ovarian cell line IGR-OV1 (Table 2); type: cell-based; details: IGROV-1
Source text: as §1, §5, §4

A2780-cisR = experiment: in vitro activity against human ovarian cell line A2780-cisR (Table 2); type: cell-based; details: for IC50: Homo sapiens, A2780cisR, A2780-cisR (platinum-resistant); for activity against A2780-cisR compared to the parental line A2780: words, Table 2
Source text: as §9, §2, §3, §6, §10

[1] = estimation of toxicity in tumor-bearing nude mice (body weight, blood cells, survival); type: in vivo, mouse
Method: (§11) In one typical set of experiments, four human breast carcinomas xenotransplanted into female Ncr: nu/nu (Taconic, Germantown, U.S.A.) or male Bom: NMRI-nu/nu mice (Bomholtgaard, Ry, Denmark) were used for the evaluation of antitumor activity. Mice weighing 20-25 g at the start of experiments were held under sterile conditions at 24-26° C., 50% relative humidity and 12 hours light-dark rhythm in laminar flow shelves. The animals received autoclaved food and bedding; the drinking water was filtered and acidified (pH4.0).
(§12) The following breast carcinoma cell lines were used: BO; MCF-7 (NCI, U.S.A.); MT-1 and MT-3. The tumors BO and MCF-7 are ER^+ models: the carcinomas MT-1 and MT-3 are ER^- ones. Tumors were transplanted subcutaneously (s.c.) as pieces (2×2 mm) into the left flank of 5-8 nude mice/experimental group. Drug treatment was initiated when the tumors reached a diameter of 4-5 mm. Compounds were solubized with Tween 80 (maximum 10% of final volume) and suspended in saline. Suspensions were preparted freshly for each drug administration and injected in a volume of 0.2 mL/20 g body weight employing a once-weekly schedule (x3). Tumor size was measured twice weekly with a caliper. Median tumor volume/group was related to the first treatment day and expressed as Relative Tumor Volume (RTV). For the estimation of toxicity, body weight was determined twice weekly and the mean percentage body weight change (BCC) was calculated. In one experiment blood was obtained from the retroorbital venous plexus of mice and blood cells were determined with a Coulter counter (Model T41).

CH1-cisR = experiment: in vitro activity against human ovarian cell line CH1-cisR (Table 2); type: cell-based; details: Homo sapiens, CH1cisR
Source text: as §9, §2, §3, §6, §10

breast carcinoma BO = experiment: in vivo antitumor test, human breast carcinoma BO xenotransplanted in nude mice; details: BO
Method: as §11
as §12, with “T41). […]” for “T41).”

NCI-H226 = experiment: in vitro inhibition of growth of human lung cancer cell line NCI-H226 (Table 1); type: cell-based
Source text: as §1, §5, §4

CH1 = experiment: in vitro activity against human ovarian cell line CH1 (Table 2); type: cell-based; details: Homo sapiens
Source text: as §9, §2, §3, §6, §10

Renal TK-10 = experiment: in vitro inhibitory activity against human renal cell line TK-10 (Table 3); type: cell-based
Source text: as §1, §5, §4

[2] = MCF-7, optimum dose 200 mg/Kg/inj i.p., qd 12, 19, 26
[3] = MCF-7, optimum dose 12.5 mg/Kg/inj i.p., qd 12, 19, 26

Row | SMILES | IC50 (L88) [µM] | IC50 (Colon HCC-2998) [µM] | IC50 (MOR/CPR) [µM] | activity against MOR/CPR relative to MOR/P and MOR/R (MOR/CPR) | IC50 (A2780) [µM] | IC50 (H69/P) [µM] | IC50 (IGR-OV1) [µM] | IC50 (A2780-cisR) [µM] | activity against A2780-cisR compared to the parental line A2780 (A2780-cisR) | IC50 (CH1-cisR) [µM] | IC50 (NCI-H226) [µM] | IC50 (CH1) [µM] | IC50 (Renal TK-10) [µM] | further results
1 | Nc1ccc(-c2nc3ccccc3s2)cc1I [DF129, 2-(4'-amino-3'-iodophenyl)benzothiazole] | 0.05 | < 1 | 0.025 | more active against the MOR/CPR line than against the two other lines | > 100 | > 10 | < 0.1 | 41 | increased activity | 83 | 0.3 | 30 | < 1 | BWC (body weight change) ([1]; BO, optimum dose 200 mg/Kg/inj i.p., qd 27, 34, 41 (Table 6)): -14%; BWC (body weight change) [1, 2]: -14%; Platelets (% of controls) [1, 2]: 106 % of controls; WBC, white blood cells (% of controls) [1, 2]: 112 % of controls; RTV, relative tumor volume (T/C %) (breast carcinoma BO; optimum dose 200 mg/Kg/inj i.p., qd 27, 34, 41 (Table 6), not marked significant): 97%
2 | Cc1cc(-c2nc3ccccc3s2)ccc1N [DF203, 2-(4'-amino-3'-methylphenyl)benzothiazole] | 6 | < 1 | 0.04 | more active against the MOR/CPR line than against the two other lines | > 100 | > 10 | < 0.1 | 18 | increased activity | 42 | 0.3 | 19 | < 1 | BWC (body weight change) ([1]; BO, optimum dose 25 mg/Kg/inj i.p., qd 27, 34, 41): -9%; BWC (body weight change) [1, 3]: -12%; Platelets (% of controls) [1, 3]: 108 % of controls; WBC, white blood cells (% of controls) [1, 3]: 100 % of controls; overall change in white blood cell or platelet counts ([1]; MCF-7 test, words): no overall change; BWC (body weight change) ([1]; MT-1, optimum dose 6.25 mg/Kg/inj i.p., qd 7, 14, 21): -3%; BWC (body weight change) ([1]; MT-3, optimum dose 12.5 mg/Kg/inj i.p., qd 7, 14, 21): -3%; bone marrow toxicity ([1]; mouse, in vivo): not dose-limiting; survivors ([1]; mouse, in vivo, 25 mg/kg): only one survivor; toxicity ([1]; mouse, in vivo, 25 mg/kg): toxic; evaluation (breast carcinoma BO; optimum dose 25 mg/Kg/inj i.p., qd 27, 34, 41): ++ (T/C = 21-35%); RTV, relative tumor volume (T/C %) (breast carcinoma BO; optimum dose 25 mg/Kg/inj i.p., qd 27, 34, 41, marked * significant versus control): 35%
